PubChem BioAssay (NCI)
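Cells were grown in 96-well plates and exposed to each compound for 48 hours at five concentrations; endpoints were interpolated linearly between bracketing concentrations, or set to the highest concentration if not reached. GI50 is the concentration that inhibits growth by half. Definition used: TGI = concentration required for complete inhibition of growth.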

Legend:
Experiment in all cases: NCI anticancer screen, dose series, 48 h
HOP-92 NSCLC = test system: HOP-92 NSCLC
MDA-MB-435 = test system: MDA-MB-435
NCI-H226 lung = test system: NCI-H226 lung
IGROV1 ovarian = test system: IGROV1 ovarian
SN12C renal = test system: SN12C renal
HOP-62 NSCLC = test system: HOP-62 NSCLC
SK-MEL-5 melanoma = test system: SK-MEL-5 melanoma
HT29 colon = test system: HT29 colon
OVCAR-4 ovarian = test system: OVCAR-4 ovarian
A498 renal = test system: A498 renal

Compound | GI50 (HOP-92 NSCLC) | TGI (HOP-92 NSCLC) | GI50 (MDA-MB-435) | TGI (MDA-MB-435) | GI50 (NCI-H226 lung) | TGI (NCI-H226 lung) | GI50 (IGROV1 ovarian) | TGI (IGROV1 ovarian) | GI50 (SN12C renal) | TGI (SN12C renal) | GI50 (HOP-62 NSCLC) | TGI (HOP-62 NSCLC) | GI50 (SK-MEL-5 melanoma) | TGI (SK-MEL-5 melanoma) | GI50 (HT29 colon) | TGI (HT29 colon) | GI50 (OVCAR-4 ovarian) | TGI (OVCAR-4 ovarian) | GI50 (A498 renal) | TGI (A498 renal)
C=C/C(C)=C/C[C@]1(C)[C@H](C)[C@@H](OC(=O)CCC)[C@H](O)[C@@]23C(=C[C@H](OC)C[C@@H]12)[C@@H](OC(=O)CCC)O[C@H]3OC(C)=O | 0.303 µM | 1.13 µM | 0.298 µM | 0.95 µM | 0.38 µM | 1.34 µM | 1.53 µM | 3.39 µM | 0.316 µM | 1.4 µM | 1.62 µM | 3.62 µM | 0.704 µM | 2.03 µM | 0.343 µM | 1.42 µM | 0.351 µM | 1.34 µM | 0.223 µM | 0.645 µM
Oc1c(Cl)cc(Cl)c2ccc(Cn3cc(-c4cc(C(F)(F)F)cc(C(F)(F)F)c4)nn3)nc12 | 1.45 µM | 4.03 µM | 1.82 µM | 4.18 µM | 4.93 µM | 21 µM | 1.5 µM | 3.47 µM | 3.11 µM | 11.8 µM | 15.5 µM | 30.7 µM | 2.98 µM | 10.7 µM | 2.04 µM | 5.1 µM | 1.27 µM | 2.75 µM | 2.6 µM | 10.8 µM
Cc1ccc2nc(-c3ccc(OCC(=O)N=Nc4c(O)[nH]c5ccccc45)cc3)[nH]c2c1 | 2.79 µM | 18.2 µM | 1.95 µM | 3.88 µM | 11.2 µM | 56.1 µM | 3.61 µM | 16.1 µM | 2.42 µM | 7.73 µM | 19 µM | 45.4 µM | 11.9 µM | 56.1 µM | 2.43 µM | 6.27 µM | 1.95 µM | 4.09 µM | > 100 µM | > 100 µM
Cc1cc(Nc2nc(C(=O)Nc3ccccc3)nc3ccccc23)n[nH]1 | 0.399 µM | > 25 µM | 9.67 µM | > 25 µM | 10 µM | > 25 µM | 4.48 µM | > 25 µM | 10.3 µM | > 25 µM | 14.2 µM | > 25 µM | 22.5 µM | > 25 µM | 17.6 µM | > 25 µM | 7.87 µM | > 25 µM | 1.05 µM | > 25 µM
COc1cccc(CN(C)c2ccc(CO)c(Cl)c2)c1 | 6.97 µM | 56.9 µM | 19.7 µM | 66.2 µM | 0.0588 µM | 0.202 µM | 0.216 µM | 2.6 µM | 24.7 µM | > 100 µM | 5.33 µM | > 87.7 µM | 7.5 µM | 21.4 µM | 5.03 µM | > 100 µM | 1.19 µM | 29.4 µM | 0.0311 µM | 0.154 µM
CCN1CCN(c2cc(C)nc(N(CCCNc3ccnc4cc(Cl)ccc34)Cc3ccc4c(c3)OCO4)n2)CC1 | 1.61 µM | 4.67 µM | 1.77 µM | 3.3 µM | 32.8 µM | > 100 µM | 3.46 µM | 16.7 µM | 4.13 µM | > 100 µM | 2.73 µM | 31.6 µM | 1.7 µM | 3.13 µM | 1.95 µM | 5.79 µM | 3.05 µM | 25.1 µM | 3.66 µM | 20.8 µM
CCCn1cnc2c(SCC(=O)O)nc(N)nc21 |  | > 100 µM |  | > 100 µM |  | > 100 µM |  | > 100 µM |  | > 100 µM |  | > 100 µM |  | > 100 µM |  | > 100 µM |  | > 100 µM |  | > 100 µM
C=C1C(=O)O[C@H]2[C@H]1CC/C(COC(=O)NCc1ccc(OC)cc1)=C\CC[C@@]1(C)O[C@@H]21 | 0.559 µM | 1.83 µM | 0.805 µM | 2.62 µM | 1.1 µM | 5.01 µM | 0.783 µM | 2.79 µM | 3.4 µM | 12.4 µM | 7.98 µM | 24.1 µM | 2.85 µM | 17.2 µM | 0.835 µM | 2.78 µM | 0.992 µM | 13.5 µM | 2.92 µM | 20 µM
COC(=O)C(CCC(=O)CCl)N1C(=O)c2ccccc2C1=O (stereo not given) |  | 12.1 µM |  | 22 µM |  | 29.9 µM |  | 26.9 µM |  | 23.8 µM |  | 29 µM |  | 16.1 µM |  | 27.6 µM |  | 27.4 µM |  | 36.6 µM
COC(=O)c1cc2c(cc1Cl)SC1=NN(C)S(=O)N1S2(=O)=O (stereo not given) | 53.7 µM | > 100 µM | > 100 µM | > 100 µM | > 100 µM | > 100 µM | > 100 µM | > 100 µM | > 100 µM | > 100 µM | > 100 µM | > 100 µM | > 100 µM | > 100 µM | > 100 µM | > 100 µM | > 100 µM | > 100 µM | 75 µM | > 100 µM
CN(C)c1ccc(/C=C2\N=C(c3ccccc3)N(c3cc(C(F)(F)F)ccc3Cl)C2=O)cc1 | > 87.1 µM | > 100 µM | > 100 µM | > 100 µM | > 90.4 µM | > 100 µM | > 100 µM | > 100 µM | > 100 µM | > 100 µM | > 100 µM | > 100 µM | > 100 µM | > 100 µM | > 100 µM | > 100 µM | > 69 µM | > 100 µM | > 100 µM | > 100 µM
O=C(Nc1ccc(F)cc1F)c1cc(Cl)ccc1O | 0.232 µM | 0.942 µM | 1.21 µM | 8.53 µM | 1.29 µM | 5.73 µM | 1.49 µM | > 100 µM | 1.29 µM | 8.1 µM | 1.2 µM | 4.37 µM | 0.608 µM | 2.03 µM | 3.62 µM | > 100 µM | 0.636 µM | > 100 µM | 0.257 µM | 0.902 µM
